Assay results as given in publication PMC4104029, “Mechanism of Action of Compound-13: An α1-Selective Small Molecule Activator of AMPK” (Chemistry & Biology, 2014).

Target: T1, GST-AMPKγ2 subunit fusion (Homo sapiens, UniProt Q9UGJ0)
T1 construct: A C-terminal fragment of AMPKγ2 bearing CBS domains 1-4 (247-569) was expressed in; made in house; host or cells: E. coli
Test: Competitive elution of AMPKγ2 from ATP-Sepharose
Format: binding
Details: C2 and AMP to the same extent
Protocol: Supplemental Figure Legends:
Figure S1, related to Figures 1-3. Subunit composition of AMPK preparations used in this study. (A) Heterotrimeric AMPK complexes (10 ng) produced in both Sf9 (Sigma and Signalchem) and E.coli (in our laboratory) were analysed by Western blotting using isoform specific antibodies. Note that both the α2/α1-HOOK and α2/α1-LOOP chimeras are no longer recognised by the anti-α2 antibody as the epitope has been replaced (see Fig S4). (B) Heterotrimeric AMPK α2/α1 chimeric complexes expressed in E.coli (2 μg) were separated by SDS-PAGE and stained with Coomassie G-250. Arrows indicate the position of the […]
Figure S2, related to Figure 1. C2 has negligible effects on a panel of 138 protein kinases.
Kinase inhibition screen was performed by the International Centre for Kinase profiling (Dundee). Assays were performed in duplicate using 10 µM C2 and are representative of two independent screens. Results are shown in rank order as mean % activity compared with controls in the absence of compound ± SD. […]
Figure S3, related to Figure 2. […] Results are expressed as mean Pi incorporated in nmol.min-1.mg-1 ± SD. […] Results are expressed as fold increase in activity relative to controls in the absence of compound ± SD.
(E) C2 and AMP displace a GST-AMPKγ2 subunit fusion from ATP-γ-Sepharose. […] The presence of eluted AMPKγ2 was analysed by SDS-PAGE and staining with colloidal Coomassie. […]

T1 sequence (Q9UGJ0 247-569): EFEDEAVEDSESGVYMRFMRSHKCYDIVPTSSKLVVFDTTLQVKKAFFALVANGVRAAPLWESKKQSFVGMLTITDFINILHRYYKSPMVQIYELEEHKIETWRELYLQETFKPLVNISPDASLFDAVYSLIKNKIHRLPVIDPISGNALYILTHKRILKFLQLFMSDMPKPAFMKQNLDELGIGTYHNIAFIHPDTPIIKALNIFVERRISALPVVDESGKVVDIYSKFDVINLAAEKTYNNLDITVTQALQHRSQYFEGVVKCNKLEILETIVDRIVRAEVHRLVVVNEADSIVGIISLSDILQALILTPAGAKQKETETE

SMILES | displacement from ATP-γ-Sepharose
Nc1ncnc2c1ncn2[C@@H]1O[C@H](COP(=O)(O)O)[C@@H](O)[C@H]1O [AMP, reference compound] | displaced
O=P(O)(O)c1ccc(-c2cc(O)on2)o1 [Compound C2, 5-(5-hydroxyl-isoxazol-3-yl)-furan-2-phosphonic acid] | displaced
